Assay results taken from paper PMC5062570 (Nature Communications, 2016).
Entries after “also recorded” stand apart in the source; their conditions may differ.

Assays:
CatE = biological target: T1, CatE (Homo sapiens, UniProt P14091); assay: CatE purified enzyme fluorescence polarization assay; format: biochemical
T1 construct: purchased Creative BioMart CTSE-255H
T1 sequence (P14091 54-396): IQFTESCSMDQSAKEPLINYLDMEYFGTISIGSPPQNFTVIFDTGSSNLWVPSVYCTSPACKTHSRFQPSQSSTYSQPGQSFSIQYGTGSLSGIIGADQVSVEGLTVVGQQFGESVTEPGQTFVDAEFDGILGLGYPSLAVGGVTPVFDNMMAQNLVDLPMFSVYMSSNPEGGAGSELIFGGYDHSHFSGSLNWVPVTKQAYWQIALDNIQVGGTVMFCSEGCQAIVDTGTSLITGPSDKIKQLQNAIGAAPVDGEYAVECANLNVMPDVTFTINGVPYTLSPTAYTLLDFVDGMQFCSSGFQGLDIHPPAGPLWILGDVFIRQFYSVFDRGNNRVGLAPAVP
Description: Purified enzyme inhibition of BACE1, BACE2, CatD and CatE was determined using fluorescence polarization (FP) assays. Briefly, purified enzymes were treated with test compounds (1% DMSO, 37 °C) in the presence of synthetic peptide substrates (150 nM) in 30 μl total volume of NaOAc buffer (100 mM, pH 4.5, 0.0001% Tween-20) in a 384-well plate. After incubation, reactions were stopped and substrate captured by the addition of 1.5 μM streptavidin, and FP measured with an EnVision plate reader (PerkinElmer, excitation 485 nm, emission 530 nm). […] BACE2 activity was assessed with 0.5 nM recombinant BACE2 (R&D Systems 4097-AS) and the same synthetic substrate used for BACE1, with a 1 h incubation time. […] CatE activity was assessed with 1.0 nM recombinant CatE (Creative BioMart CTSE-255H) and the same synthetic substrate used for CatD, with a 1.5 h incubation time.

[1] = test system: mRNA levels (CTSD, CTSB, CTSF, BACE1, GBA, TFEB) in ARPE-19 cells; assay: qRT-PCR of inhibitor-treated ARPE-19 cells; format: cell-based, human; conditions: 7 days
purified CatD = biological target: T2, purified CatD (Homo sapiens, UniProt P07339); assay: PF-7802 labelling of purified CatD (probe-based competition); format: binding; conditions: 250 nM purified human mature CatD, NaOAc pH 4.5, PF-7802 100 nM
T2 construct: final maturation into a non-covalently associated heavy chain and light chain; purchased Sigma C8696; host or cells: human liver
T2 sequence (P07339 65-162 limits assumed): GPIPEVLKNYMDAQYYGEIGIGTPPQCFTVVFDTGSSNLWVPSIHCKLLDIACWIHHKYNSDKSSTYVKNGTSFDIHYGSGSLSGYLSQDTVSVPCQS
T2 sequence (P07339 169-412 limits assumed): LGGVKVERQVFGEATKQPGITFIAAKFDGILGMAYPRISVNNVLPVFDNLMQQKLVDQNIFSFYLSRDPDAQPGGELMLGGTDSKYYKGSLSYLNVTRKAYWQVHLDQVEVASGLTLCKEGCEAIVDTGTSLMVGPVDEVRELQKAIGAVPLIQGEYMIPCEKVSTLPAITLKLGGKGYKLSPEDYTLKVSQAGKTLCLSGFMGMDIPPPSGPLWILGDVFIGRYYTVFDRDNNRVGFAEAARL
Description: Purified CatD (Sigma C8696, isolated from human liver) or proCatD (R&D systems 1014-AS) was reconstituted and diluted to 250 nM in NaOAc buffer (50 mM, pH 4.5, 0.0001% Tween-20). […] Samples were analysed by in-gel fluorescence scanning and western blot with an α-CatD antibody (R&D Systems AF-1014) as described above for CatD knockdown.

Cc1cc([C@H]2C[C@H]3[C@@H](C)SC(N)=N[C@@]3(c3ccc(F)cc3F)CO2)on1 [PF-9283]
IC50 (CatE): 24 µM | mRNA level changes (qRT-PCR) [1]: did not display changes in mRNA levels; also recorded: no changes in CatD mRNA levels | Competition of PF-7802 labelling of purified mature CatD (purified CatD): competed by pretreatment with PF-9283 in a concentration-dependent manner; also recorded: concentration-dependently competed
